Measurements as given in ChEMBL document CHEMBL3046627, “Synthesis and in vitro study of antibacterial, antifungal activities of some novel bisquinolines” (2013).
Converted amounts (≈) assume the structure as drawn. The source made the active and inactive calls. The rule behind the calls is not given here.

What was measured:
Type in all cases: functional
Staphylococcus aureus [1] = assay: Antibacterial activity against Staphylococcus aureus 29737 assessed as growth inhibition at MIC after 24 hr by agar dilution method
Vibrio cholerae [2] = assay: Antibacterial activity against Vibrio cholerae 759 assessed as growth inhibition at MIC after 24 hr by agar dilution method
Shigella dysenteriae [3] = assay: Antibacterial activity against Shigella dysenteriae 15 assessed as growth inhibition after 24 hr by agar dilution method
Klebsiella pneumoniae [4] = assay: Antibacterial activity against Klebsiella pneumoniae J/I/4 assessed as growth inhibition after 24 hr by agar dilution method
Staphylococcus aureus [5] = assay: Antibacterial activity against Staphylococcus aureus 29737 assessed as growth inhibition after 24 hr by agar dilution method
Micrococcus luteus [6] = assay: Antibacterial activity against Micrococcus luteus ATCC 9341 assessed as growth inhibition at MIC after 24 hr by agar dilution method
Shigella dysenteriae [7] = assay: Antibacterial activity against Shigella dysenteriae 15 assessed as growth inhibition at MIC after 24 hr by agar dilution method
Pseudomonas aeruginosa [8] = assay: Antibacterial activity against Pseudomonas aeruginosa 71 assessed as growth inhibition after 24 hr by agar dilution method
Klebsiella pneumoniae [9] = assay: Antibacterial activity against Klebsiella pneumoniae J/I/4 assessed as growth inhibition at MIC after 24 hr by agar dilution method
Bacillus pumilus [10] = assay: Antibacterial activity against Bacillus pumilus 11778 assessed as growth inhibition at MIC after 24 hr by agar dilution method
Micrococcus luteus [11] = assay: Antibacterial activity against Micrococcus luteus ATCC 9341 assessed as growth inhibition after 24 hr by agar dilution method
Cryptococcus neoformans [12] = assay: Antifungal activity against Cryptococcus neoformans assessed as growth inhibition after 96 hr by agar dilution method
Bacillus pumilus [13] = assay: Antibacterial activity against Bacillus pumilus 11778 assessed as growth inhibition after 24 hr by agar dilution method
Cryptococcus neoformans [14] = assay: Antifungal activity against Cryptococcus neoformans assessed as growth inhibition at MIC after 96 hr by agar dilution method
Escherichia coli [15] = assay: Antibacterial activity against Escherichia coli 319 assessed as growth inhibition at MIC after 24 hr by agar dilution method
Candida albicans [16] = assay: Antifungal activity against Candida albicans assessed as growth inhibition at MIC after 96 hr by agar dilution method
Candida tropicalis [17] = assay: Antifungal activity against Candida tropicalis assessed as growth inhibition after 96 hr by agar dilution method
Aspergillus niger [18] = assay: Antifungal activity against Aspergillus niger assessed as growth inhibition after 96 hr by agar dilution method
Escherichia coli [19] = assay: Antibacterial activity against Escherichia coli 319 assessed as growth inhibition after 24 hr by agar dilution method
Aspergillus niger [20] = assay: Antifungal activity against Aspergillus niger assessed as growth inhibition at MIC after 96 hr by agar dilution method
Candida tropicalis [21] = assay: Antifungal activity against Candida tropicalis assessed as growth inhibition at MIC after 96 hr by agar dilution method
Pseudomonas aeruginosa [22] = assay: Antibacterial activity against Pseudomonas aeruginosa 71 assessed as growth inhibition at MIC after 24 hr by agar dilution method
Candida albicans [23] = assay: Antifungal activity against Candida albicans assessed as growth inhibition after 96 hr by agar dilution method
Vibrio cholerae [24] = assay: Antibacterial activity against Vibrio cholerae 759 assessed as growth inhibition after 24 hr by agar dilution method
[25] = Staphylococcus aureus, 29737, 24 h
[26] = Pseudomonas aeruginosa, 71, 24 h

Molecule | MIC (Cryptococcus neoformans [12]) | diameter of the inhibition zone (DIZ) (Cryptococcus neoformans [14]) | diameter of the inhibition zone (DIZ) (Candida albicans [16]) | MIC (Candida tropicalis [17]) | MIC (Aspergillus niger [18]) | MIC (Candida albicans [23]) | MIC (Shigella dysenteriae [3]) | MIC (Klebsiella pneumoniae [4]) | MIC (Staphylococcus aureus [5]) | MIC (Pseudomonas aeruginosa [8]) | MIC (Micrococcus luteus [11]) | MIC (Bacillus pumilus [13]) | MIC (Vibrio cholerae [24]) | MIC (Escherichia coli [19]) | also measured
Clc1ccc(OCc2cccc(COc3ccc(Cl)c4cccnc34)c2)c2ncccc12 | inactive | inactive | inactive | 1000 µg/mL (≈ 2170 µM) | 1000 µg/mL (≈ 2170 µM) | inactive | – | – | – | – | – | – | – | – | diameter of the inhibition zone (DIZ) (Staphylococcus aureus [1]): 8 mm; diameter of the inhibition zone (DIZ) (Vibrio cholerae [2]): 6 mm; MIC (Shigella dysenteriae [3]; Shigella dysenteriae, 15, 24 h): 32 µg/mL (≈ 69.4 µM); MIC (Klebsiella pneumoniae [4]; J/I/4, 24 h): 32 µg/mL (≈ 69.4 µM); MIC (Staphylococcus aureus [5]; [25]): 128 µg/mL (≈ 277 µM); diameter of the inhibition zone (DIZ) (Micrococcus luteus [6]): 8 mm; diameter of the inhibition zone (DIZ) (Shigella dysenteriae [7]): 8 mm; MIC (Pseudomonas aeruginosa [8]; [26]): 256 µg/mL (≈ 555 µM); diameter of the inhibition zone (DIZ) (Klebsiella pneumoniae [9]): 6 mm; diameter of the inhibition zone (DIZ) (Bacillus pumilus [10]): inactive; MIC (Micrococcus luteus [11]; ATCC 9341, 24 h): 64 µg/mL (≈ 139 µM); MIC (Bacillus pumilus [13]; Bacillus pumilus, 11778, 24 h): > 500 µg/mL; diameter of the inhibition zone (DIZ) (Escherichia coli [15]): inactive; MIC (Escherichia coli [19]; Escherichia coli, 319, 24 h): > 500 µg/mL; diameter of the inhibition zone (DIZ) (Aspergillus niger [20]): 8 mm; diameter of the inhibition zone (DIZ) (Candida tropicalis [21]): 7 mm; diameter of the inhibition zone (DIZ) (Pseudomonas aeruginosa [22]): 6 mm; MIC (Vibrio cholerae [24]; Vibrio cholerae, 759, 24 h): 256 µg/mL (≈ 555 µM)
GENTAMICIN | – | – | – | – | – | – | 2 µg/mL | 0.25 µg/mL | 1 µg/mL | 4 µg/mL | 24 µg/mL | 10 µg/mL | 2 µg/mL | – | inhibition zone (IZ) (Vibrio cholerae [2]): 11 mm; inhibition zone (IZ) (Micrococcus luteus [6]): 7 mm; inhibition zone (IZ) (Shigella dysenteriae [7]): 12 mm; inhibition zone (IZ) (Klebsiella pneumoniae [9]): 9 mm; inhibition zone (IZ) (Bacillus pumilus [10]): 7 mm
Clc1ccc(OCc2nc3ccccc3nc2COc2ccc(Cl)c3cccnc23)c2ncccc12 | inactive | inactive | 7.8 mm | 1500 µg/mL (≈ 2920 µM) | 1000 µg/mL (≈ 1950 µM) | 1000 µg/mL (≈ 1950 µM) | – | – | – | – | – | – | – | – | diameter of the inhibition zone (DIZ) (Staphylococcus aureus [1]): inactive; diameter of the inhibition zone (DIZ) (Vibrio cholerae [2]): inactive; MIC (Shigella dysenteriae [3]; Shigella dysenteriae, 15, 24 h): > 500 µg/mL; MIC (Klebsiella pneumoniae [4]; J/I/4, 24 h): > 500 µg/mL; MIC (Staphylococcus aureus [5]; [25]): > 500 µg/mL; diameter of the inhibition zone (DIZ) (Micrococcus luteus [6]): 7 mm; diameter of the inhibition zone (DIZ) (Shigella dysenteriae [7]): 6 mm; MIC (Pseudomonas aeruginosa [8]; [26]): > 500 µg/mL; diameter of the inhibition zone (DIZ) (Klebsiella pneumoniae [9]): 6 mm; diameter of the inhibition zone (DIZ) (Bacillus pumilus [10]): 8 mm; MIC (Micrococcus luteus [11]; ATCC 9341, 24 h): 32 µg/mL (≈ 62.3 µM); MIC (Bacillus pumilus [13]; Bacillus pumilus, 11778, 24 h): 32 µg/mL (≈ 62.3 µM); diameter of the inhibition zone (DIZ) (Escherichia coli [15]): 8 mm; MIC (Escherichia coli [19]; Escherichia coli, 319, 24 h): 32 µg/mL (≈ 62.3 µM); diameter of the inhibition zone (DIZ) (Aspergillus niger [20]): 7.5 mm; diameter of the inhibition zone (DIZ) (Candida tropicalis [21]): 7.5 mm; diameter of the inhibition zone (DIZ) (Pseudomonas aeruginosa [22]): inactive; MIC (Vibrio cholerae [24]; Vibrio cholerae, 759, 24 h): > 500 µg/mL
c1cnc2c(OCc3nc4ccccc4nc3COc3cccc4cccnc34)cccc2c1 | inactive | – | – | inactive | inactive | inactive | inactive | inactive | inactive | inactive | inactive | inactive | inactive | inactive | –
Cc1ccc2cccc(OCc3nc4ccccc4nc3COc3cccc4ccc(C)nc34)c2n1 | inactive | – | – | inactive | inactive | inactive | inactive | inactive | inactive | inactive | inactive | inactive | inactive | inactive | –
Cc1ccc2cccc(OCc3ccc(COc4cccc5ccc(C)nc45)cc3)c2n1 | inactive | – | – | inactive | inactive | inactive | inactive | inactive | inactive | inactive | inactive | inactive | inactive | inactive | –
c1cnc2c(OCc3ccc(COc4cccc5cccnc45)cc3)cccc2c1 | inactive | inactive | inactive | inactive | inactive | inactive | inactive | inactive | inactive | inactive | inactive | inactive | inactive | inactive | –
